According to patent publication US9901571B2, “Tetrahydropyrazolopyridine derivatives as ghrelin receptor agonists” (RaQualia Pharma Inc., priority 2014, dated 2018):
pEC50: −log10 of the molar value.

Columns and labels:
[1] = Half-life in human liver microsomes (HLM), HLM CLint; format: in vitro ADME; settings: for CLint scaled at 1 microM: human, human liver microsomes (XTreme 200), 1 microM test compound, 0.61 mg protein/mL HLM, pH 7.4, 37° C., read-out: HLM CLint (clearance in human liver microsome); for Ratio of HLM CLint over comparison 1: ratio between comparison compound 1 and the example
Procedure: Half-Life in Human Liver Microsomes (HLM)
Test compounds (1 microM) are incubated with 1 mM MgCl2 and 0.61 mg protein/mL HLM (XTreme 200) in 100 mM phosphate buffer (pH 7.4) at 37° C. on the 96-deep well plate. An aliquot of samples is collected at […], where 0 […] the time when NADPH is added into the reaction mixture. Collected aliquots are extracted with acetonitrile solution containing an internal standard. The precipitated protein is spun down in centrifuge (2000 rpm, […]). The compound concentration in supernatant is measured by LC/MS/MS system.
The half-life value is obtained by plotting the natural logarithm of the peak area ratio of compound/internal standard versus time. The slope of the line of the best fit through the points yields the elimination rate constant (kel). This is converted to a half-life value using a following equation: Half-life=1n2/kel.

human ghrelin receptor = target: T1, human ghrelin receptor (Homo sapiens, UniProt Q92847); assay: Ghrelin receptor agonistic activity induced Ca2+ influx in HEK293 cells stably expressing human ghrelin receptor; format: cell-based; settings: 11-point dose-response
T1 construct: expressed in transfected cells; host or cells: HEK293
Procedure: Measurement of the ghrelin receptor agonistic activity induced Ca^2+ influx in HEK293 cells stably expressing human ghrelin receptor
HEK293 cells stably expressing human ghrelin receptor are maintained in Dulbecco's modified Eagle medium (high glucose) supplemented with 10% fetal bovine serum, 100 units/mL penicillin, 100 microg/mL streptomycin and 500 microg/mL G418 at 37° C. in a humidified incubator with 5% CO2 and grown to 60-80% confluence. The day before the assay, the cells are seeded on poly-D-lysine coated 384-well plates (BD FALCON) at a density of 10,000 cells per well and incubated overnight in incubator.
On the day of the assay, the cells are washed at three times with assay buffer (Hanks' balanced salt solution with 20 mM HEPES, pH7.4), and are incubated for 1 hour at room temperature to load 0.5 microM Fluo-4 AM reagent (Invitrogen).
After removing Fluo-4, and washing with assay buffer, the cells are added with various concentrations of the compounds. The changes in intracellular calcium concentration are monitored with the fluorescence imaging plate reader, FDSS6000 (Hamamatsu Photonics).
The EC50 values for compounds of the present invention are determined from 11-point dose-response studies. Curves are generated using the average of duplicate wells for each data point. Finally, the EC50 values are calculated using the best-fit dose curve determined by XLfit (ID Business Solutions Ltd).

T1 sequence (Q92847 whole entry): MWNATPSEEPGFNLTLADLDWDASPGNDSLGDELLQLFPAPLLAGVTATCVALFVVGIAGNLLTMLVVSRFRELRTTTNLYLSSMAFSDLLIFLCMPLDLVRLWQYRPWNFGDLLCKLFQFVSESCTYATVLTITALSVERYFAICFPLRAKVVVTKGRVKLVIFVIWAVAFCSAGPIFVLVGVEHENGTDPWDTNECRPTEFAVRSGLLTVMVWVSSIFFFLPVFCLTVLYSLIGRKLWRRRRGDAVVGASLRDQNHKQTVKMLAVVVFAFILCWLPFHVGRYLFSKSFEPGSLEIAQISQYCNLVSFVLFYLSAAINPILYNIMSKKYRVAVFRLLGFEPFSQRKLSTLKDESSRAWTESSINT

| Compound | CLint scaled at 1 microM [1] | Ratio of HLM CLint over comparison 1 [1] | pEC50 (human ghrelin receptor) |
| --- | --- | --- | --- |
| CN1N=C2CCN(C(=O)[C@@H](CCc3ccccc3)NC(=O)C(C)(C)N)C[C@@]2(Cc2ccccc2)C1=O [Example 2, 2-amino-N—((R)-1-((R)-3a-benzyl-2-methyl-3-oxo-3a,4,6,7-tetrahydro-2H-pyrazolo[4,3-c]pyridin-5(3H)-yl)-1-oxo-4-phenylbutan-2-yl)-2-methylpropanamide] | 54.5 mL/min/kg | 2.4 | > 7.70 |
| CN1N=C2CCN(C(=O)[C@@H](CCc3ccc(CO)cc3Cl)NC(=O)C(C)(C)N)C[C@@]2(Cc2ccccc2)C1=O [Example 3, 2-amino-N—((R)-1-((R)-3a-benzyl-2-methyl-3-oxo-3a,4,6,7-tetrahydro-2H-pyrazolo[4,3-c]pyridin-5(3H)-yl)-4-(2-chloro-4-(hydroxymethyl)phenyl)-1-oxobutan-2-yl)-2-methylpropanamide] | 43.5 mL/min/kg | 3.0 | > 7.70 |
| CN1N=C2CCN(C(=O)[C@@H](CCc3ccc(CO)cc3F)NC(=O)C(C)(C)N)C[C@@]2(Cc2ccccc2)C1=O [Example 4, 2-amino-N—((R)-1-((R)-3a-benzyl-2-methyl-3-oxo-3a,4,6,7-tetrahydro-2H-pyrazolo[4,3-c]pyridin-5(3H)-yl)-4-(2-fluoro-4-(hydroxymethyl)phenyl)-1-oxobutan-2-yl)-2-methylpropanamide] | 21.7 mL/min/kg | 6.0 | > 7.70 |
| CN1N=C2CCN(C(=O)[C@@H](CCc3cc(CO)ccc3F)NC(=O)C(C)(C)N)C[C@@]2(Cc2ccccc2)C1=O [Example 5, 2-amino-N—((R)-1-((R)-3a-benzyl-2-methyl-3-oxo-3a,4,6,7-tetrahydro-2H-pyrazolo[4,3-c]pyridin-5(3H)-yl)-4-(2-fluoro-5-(hydroxymethyl)phenyl)-1-oxobutan-2-yl)-2-methylpropanamide] | 44.6 mL/min/kg | 2.9 | > 7.70 |

Continued, values first:

| CLint scaled at 1 microM [1] | Ratio of HLM CLint over comparison 1 [1] | pEC50 (human ghrelin receptor) | Compound |
| --- | --- | --- | --- |
| 53.5 mL/min/kg | 2.4 | > 7.70 | CN1N=C2CCN(C(=O)[C@@H](CCCc3cccc(CO)c3)NC(=O)C(C)(C)N)C[C@@]2(Cc2ccccc2)C1=O [Example 7, 2-amino-N—((R)-1-((R)-3a-benzyl-2-methyl-3-oxo-3a,4,6,7-tetrahydro-2H-pyrazolo[4,3-c]pyridin-5(3H)-yl)-5-(3-(hydroxymethyl)phenyl)-1-oxopentan-2-yl)-2-methylpropanamide] |
| 48.5 mL/min/kg | 2.7 | > 7.70 | CN1N=C2CCN(C(=O)[C@@H](CCCc3ccccc3CO)NC(=O)C(C)(C)N)C[C@@]2(Cc2ccccc2)C1=O [Example 8, 2-amino-N—((R)-1-((R)-3a-benzyl-2-methyl-3-oxo-3a,4,6,7-tetrahydro-2H-pyrazolo[4,3-c]pyridin-5(3H)-yl)-5-(2-(hydroxymethyl)phenyl)-1-oxopentan-2-yl)-2-methylpropanamide] |
| 19.7 mL/min/kg | 6.6 | > 7.70 | CN1N=C2CCN(C(=O)[C@@H](CCCc3ccccn3)NC(=O)C(C)(C)N)C[C@@]2(Cc2ccccc2)C1=O [Example 9, 2-amino-N—((R)-1-((R)-3a-benzyl-2-methyl-3-oxo-3a,4,6,7-tetrahydro-2H-pyrazolo[4,3-c]pyridin-5(3H)-yl)-1-oxo-5-(pyridin-2-yl)pentan-2-yl)-2-methylpropanamide] |
| 44.2 mL/min/kg | 2.9 | > 7.70 | CN1N=C2CCN(C(=O)[C@@H](CCCc3cccc(C(F)(F)F)n3)NC(=O)C(C)(C)N)C[C@@]2(Cc2ccccc2)C1=O [Example 10, 2-amino-N—((R)-1-((R)-3a-benzyl-2-methyl-3-oxo-3a,4,6,7-tetrahydro-2H-pyrazolo[4,3-c]pyridin-5(3H)-yl)-1-oxo-5-(6-(trifluoromethyl)pyridin-2-yl)pentan-2-yl)-2-methylpropanamide] |
| 36 mL/min/kg | 3.6 | > 7.70 | CN1N=C2CCN(C(=O)[C@@H](CCCc3cccc(C(F)F)n3)NC(=O)C(C)(C)N)C[C@@]2(Cc2ccccc2)C1=O [Example 13, 2-amino-N—((R)-1-((R)-3a-benzyl-2-methyl-3-oxo-3a,4,6,7-tetrahydro-2H-pyrazolo[4,3-c]pyridin-5(3H)-yl)-5-(6-(difluoromethyl)pyridin-2-yl)-1-oxopentan-2-yl)-2-methylpropanamide] |
| 51.5 mL/min/kg | 2.5 | > 7.70 | CC(C)(N)C(=O)N[C@H](CCc1ccccc1)C(=O)N1CCC2=NN(CC(F)(F)F)C(=O)[C@]2(Cc2ccccn2)C1 [Example 14, 2-amino-2-methyl-N—((R)-1-oxo-1-((R)-3-oxo-3a-(pyridin-2-ylmethyl)-2-(2,2,2-trifluoroethyl)-3a,4,6,7-tetrahydro-2H-pyrazolo[4,3-c]pyridin-5(3H)-yl)-4-phenylbutan-2-yl) propanamide] |
| 56.7 mL/min/kg | 2.3 | > 7.70 | CC(C)(N)C(=O)N[C@H](CCc1ccc(F)cc1CO)C(=O)N1CCC2=NN(CC(F)(F)F)C(=O)[C@]2(Cc2ccccn2)C1 [Example 17, 2-amino-N—((R)-4-(4-fluoro-2-(hydroxymethyl)phenyl)-1-oxo-1-((R)-3-oxo-3a-(pyridin-2-ylmethyl)-2-(2,2,2-trifluoroethyl)-3a,4,6,7-tetrahydro-2H-pyrazolo[4,3-c]pyridin-5(3H)-yl)butan-2-yl)-2-methylpropanamide] |
